In brackets after ≈: the same amount, converted by molar mass. Counter-ions that a name gives are not always drawn. Like-named read-outs stand apart in the source and are kept apart here.
How the values were obtained:
CER = test: In-vitro plant fungicide test; format: cell-based; details: Table IVb, read-out: % Control at (ppm) indicated CER; for inhibition of growth at 0.2 ppm: .2 ppm; for inhibition of growth at 0.4 ppm: .4 ppm; for inhibition of growth at 0.8 ppm: .8 ppm
[1] = tested on: Pseudomonas fluorescens (PSFL); test: Minimum inhibitory concentration (MIC), broth two-fold serial dilution test; details: Pseudomonas fluorescens
Text: When the test is ready to be done, each vessel in the dilution series, except the first vessel, contains an equal volume of compound free broth. The first vessel contains twice the volume of broth with the starting concentration of test compound. One half of the broth from the first vessel is transferred to the second vessel. After being mixed, one half the resulting volume is removed from the second vessel and transferred to the third vessel. The entire cycle is repeated sufficiently to give a series of concentrations amounting to 500, 250, 125, 63, 31, 16, 8, and 4 ppm (or 100, 50, 25, 12.5, 6.2, 3.1, 1.6, and 0.8), respectively.
Each vessel is then inoculated with a cell suspension of the appropriate test organism. Bacteria are grown in broth, fungi on agar slants for a time and at a temperature appropriate to the species being tested, and algae are a mixture of green algae and blue-green bacteria grown in a nutrient media. At the end of the growth period, in the case of bacteria, the broth is vortexed to disperse the cells.
The vessels are then incubated at the appropriate temperature. After the incubation, the vessels are examined for growth/no growth.

Rhizoctonia solani (RHI) = test: In-vitro plant fungicide test; format: cell-based; details: Rhizoctonia solani; for inhibition of growth at 0.2 ppm: .2 ppm; for inhibition of growth at 0.4 ppm: .4 ppm; for inhibition of growth at 0.8 ppm: .8 ppm
[2] = tested on: Pseudomonas aerugenosa (PSAE); test: Minimum inhibitory concentration (MIC), broth two-fold serial dilution test; details: Pseudomonas
[3] = tested on: Phytophthora capsici (PHY); test: In-vitro plant fungicide test; format: cell-based; details: Phytophthora capsici; for inhibition of growth at 0.2 ppm: .2 ppm; for inhibition of growth at 0.4 ppm: .4 ppm; for inhibition of growth at 0.8 ppm: .8 ppm
UST = test: In-vitro plant fungicide test; format: cell-based; set-up: inhibition of growth: concentration or dose not given beside the values; details: Table IVb, read-out: % Control at (ppm) indicated UST; for inhibition of growth at 0.2 ppm: .2 ppm; for inhibition of growth at 0.4 ppm: .4 ppm; for inhibition of growth at 0.8 ppm: .8 ppm
[4] = tested on: Cochliobolus sativus (HEL); test: In-vitro plant fungicide test; format: cell-based; details: Bipolaris sorokiniana; for inhibition of growth at 0.2 ppm: .2 ppm; for inhibition of growth at 0.4 ppm: .4 ppm; for inhibition of growth at 0.8 ppm: .8 ppm
Fusarium roseum (FUS) = test: In-vitro plant fungicide test; format: cell-based; details: Fusarium sambucinum; for inhibition of growth at 1.5 ppm: read-out: % Control at (ppm) indicated FUS, 1.5 ppm; for inhibition of growth at 3 ppm: read-out: % Control at (ppm) indicated FUS, 3 ppm; for inhibition of growth at 6 ppm: read-out: % Control at (ppm) indicated FUS, 6 ppm; for inhibition of growth at 12 ppm: read-out: % Control at (ppm) indicated FUS, 12 ppm; for inhibition of growth at 0.2 ppm: read-out: % Control at (ppm) indicated FUS, .2 ppm; for inhibition of growth at 0.4 ppm: read-out: % Control at (ppm) indicated FUS, .4 ppm; for inhibition of growth at 0.8 ppm: read-out: % Control at (ppm) indicated FUS, .8 ppm
[5] = tested on: Aureobasidium pullulans (APUL); test: Minimum inhibitory concentration (MIC), broth two-fold serial dilution test; format: cell-based; details: Aureobasidium pullulans
[6] = Table IVb, read-out: % Control at (ppm) indicated RHI
[7] = Table IVa, read-out: % Control at 25 ppm RHI
[8] = Table IVb, read-out: % Control at (ppm) indicated PHY
[9] = Table IVa, read-out: % Control at 25 ppm PHY
[10] = Table IVb, read-out: % Control at (ppm) indicated HEL
[11] = Table IVa, *=Phytotoxic, read-out: % Control at 25 ppm HEL
[12] = read-out: % Control at 25 ppm FUS, 25 ppm, Table IVa, *=Phytotoxic
[13] = read-out: % Control at (ppm) indicated FUS, 25 ppm, Table IVb

**Q.** How did the inhibition of growth at 1.5 ppm (CER) turn out when `C[C@H](N)C(=O)N[C@@H](COCc1ccccc1)C(=O)OCC#CI` [Compound 19, L-alanyl-O-benzyl-L-serine iodopropargyl ester trifluoroacetate] was run?
**A.** 0%

**Q.** What about the inhibition of growth at 6 ppm (CER) of the same compound?
**A.** 50%

**Q.** What about the inhibition of growth at 25 ppm (CER) of the same compound?
**A.** 100%

**Q.** And the inhibition of growth at 0.2 ppm (CER)?
**A.** 0%

**Q.** What about the inhibition of growth at 0.4 ppm (CER) of the same compound?
**A.** 0%

**Q.** What about the inhibition of growth at 0.8 ppm (CER) of the same compound?
**A.** 0%

**Q.** What about the MIC ([1]; read-out: MIC (G-) PSFL, M9G (minimal salts media with glucose), Table IIIc, iodopropargyl esters of peptides) of the same compound?
**A.** 50 µg/mL

**Q.** What about the inhibition of growth at 1.5 ppm (Rhizoctonia solani (RHI); [6]) of the same compound?
**A.** 0%

**Q.** What about the inhibition of growth at 6 ppm (Rhizoctonia solani (RHI); [6]) of the same compound?
**A.** 0%

**Q.** What about the inhibition of growth at 25 ppm (Rhizoctonia solani (RHI); [7]) of the same compound?
**A.** 100%

**Q.** What about the inhibition of growth at 25 ppm (Rhizoctonia solani (RHI); [6]) of the same compound?
**A.** 100%

**Q.** What about the inhibition of growth at 0.2 ppm (Rhizoctonia solani (RHI); [6]) of the same compound?
**A.** 0%

**Q.** And the inhibition of growth at 0.4 ppm (Rhizoctonia solani (RHI); [6])?
**A.** 0%

**Q.** And the inhibition of growth at 0.8 ppm (Rhizoctonia solani (RHI); [6])?
**A.** 0%

**Q.** What about the MIC ([2]; read-out: MIC (G-) PSAE, M9G (minimal salts media with glucose), Table IIIc, iodopropargyl esters of peptides) of the same compound?
**A.** 50 µg/mL

**Q.** And the inhibition of growth at 1.5 ppm [3, 8]?
**A.** 0%

**Q.** And the inhibition of growth at 6 ppm [3, 8]?
**A.** 0%

**Q.** And the inhibition of growth at 25 ppm [3, 9]?
**A.** 100%

**Q.** And the inhibition of growth at 25 ppm [3, 8]?
**A.** 100%

**Q.** What about the inhibition of growth at 0.2 ppm [3, 8] of the same compound?
**A.** 0%

**Q.** And the inhibition of growth at 0.4 ppm [3, 8]?
**A.** 0%

**Q.** What about the inhibition of growth at 0.8 ppm [3, 8] of the same compound?
**A.** 0%

**Q.** What about the inhibition of growth at 1.5 ppm (UST) of the same compound?
**A.** 0%

**Q.** And the inhibition of growth at 3 ppm (UST)?
**A.** 0%

**Q.** And the inhibition of growth at 6 ppm (UST)?
**A.** 100%

**Q.** What about the inhibition of growth at 25 ppm (UST) of the same compound?
**A.** 100%

**Q.** And the inhibition of growth at 0.2 ppm (UST)?
**A.** 0%

**Q.** And the inhibition of growth at 0.4 ppm (UST)?
**A.** 0%

**Q.** What about the inhibition of growth at 0.8 ppm (UST) of the same compound?
**A.** 0%

**Q.** What about the inhibition of growth (UST) of the same compound?
**A.** 100%

**Q.** What about the inhibition of growth at 1.5 ppm [4, 10] of the same compound?
**A.** 0%

**Q.** And the inhibition of growth at 6 ppm [4, 10]?
**A.** 0%

**Q.** And the inhibition of growth at 25 ppm [4, 11]?
**A.** 100%

**Q.** And the inhibition of growth at 25 ppm [4, 10]?
**A.** 100%

**Q.** And the inhibition of growth at 0.2 ppm [4, 10]?
**A.** 0%

**Q.** What about the inhibition of growth at 0.4 ppm [4, 10] of the same compound?
**A.** 0%

**Q.** What about the inhibition of growth at 0.8 ppm [4, 10] of the same compound?
**A.** 0%

**Q.** And the inhibition of growth at 25 ppm (Fusarium roseum (FUS); [12])?
**A.** 100%

**Q.** What about the inhibition of growth at 1.5 ppm (Fusarium roseum (FUS); Table IVb) of the same compound?
**A.** 0%

**Q.** And the inhibition of growth at 3 ppm (Fusarium roseum (FUS); Table IVb)?
**A.** 0%

**Q.** And the inhibition of growth at 6 ppm (Fusarium roseum (FUS); Table IVb)?
**A.** 0%

**Q.** And the inhibition of growth at 12 ppm (Fusarium roseum (FUS); Table IVb)?
**A.** 0%

**Q.** What about the inhibition of growth at 25 ppm (Fusarium roseum (FUS); [13]) of the same compound?
**A.** 0%

**Q.** And the inhibition of growth at 0.2 ppm (Fusarium roseum (FUS); Table IVb)?
**A.** 0%

**Q.** And the inhibition of growth at 0.4 ppm (Fusarium roseum (FUS); Table IVb)?
**A.** 0%

**Q.** What about the inhibition of growth at 0.8 ppm (Fusarium roseum (FUS); Table IVb) of the same compound?
**A.** 0%

**Q.** What about the MIC ([5]; read-out: MIC (F) APUL, M9G (minimal salts media with glucose), Table IIIc, iodopropargyl esters of peptides) of the same compound?
**A.** < 0.8 µg/mL

**Q.** Which inhibition of growth at 1.5 ppm (CER) does the source give for `CC(=O)NCC(=O)OCC#CI` [Compound 28, N-acetylglycine iodopropargyl ester] here?
**A.** 0%

**Q.** What about the inhibition of growth at 6 ppm (CER) of the same compound?
**A.** 100%

**Q.** What about the inhibition of growth at 25 ppm (CER) of the same compound?
**A.** 100%

**Q.** And the inhibition of growth at 0.2 ppm (CER)?
**A.** 0%

**Q.** What about the inhibition of growth at 0.4 ppm (CER) of the same compound?
**A.** 0%

**Q.** What about the inhibition of growth at 0.8 ppm (CER) of the same compound?
**A.** 0%

**Q.** And the MIC ([1]; IIIB, read-out: MIC (G-) PSFL, trypticase soy broth (complex media), Table IIIb)?
**A.** 63 µg/mL (≈ 224 µM)

**Q.** What about the inhibition of growth at 1.5 ppm (Rhizoctonia solani (RHI); [6]) of the same compound?
**A.** 100%

**Q.** And the inhibition of growth at 6 ppm (Rhizoctonia solani (RHI); [6])?
**A.** 100%

**Q.** What about the inhibition of growth at 25 ppm (Rhizoctonia solani (RHI); [7]) of the same compound?
**A.** 100%

**Q.** And the inhibition of growth at 25 ppm (Rhizoctonia solani (RHI); [6])?
**A.** 100%

**Q.** And the inhibition of growth at 0.2 ppm (Rhizoctonia solani (RHI); [6])?
**A.** 0%

**Q.** What about the inhibition of growth at 0.4 ppm (Rhizoctonia solani (RHI); [6]) of the same compound?
**A.** 0%

**Q.** What about the inhibition of growth at 0.8 ppm (Rhizoctonia solani (RHI); [6]) of the same compound?
**A.** 0%

**Q.** What about the MIC ([2]; IIIB, read-out: MIC (G-) PSAE, trypticase soy broth (complex media), Table IIIb) of the same compound?
**A.** 63 µg/mL (≈ 224 µM)

**Q.** What about the inhibition of growth at 1.5 ppm [3, 8] of the same compound?
**A.** 0%

**Q.** And the inhibition of growth at 6 ppm [3, 8]?
**A.** 100%

**Q.** What about the inhibition of growth at 25 ppm [3, 9] of the same compound?
**A.** 100%

**Q.** What about the inhibition of growth at 25 ppm [3, 8] of the same compound?
**A.** 100%

**Q.** And the inhibition of growth at 0.2 ppm [3, 8]?
**A.** 0%

**Q.** What about the inhibition of growth at 0.4 ppm [3, 8] of the same compound?
**A.** 0%

**Q.** What about the inhibition of growth at 0.8 ppm [3, 8] of the same compound?
**A.** 0%

**Q.** What about the inhibition of growth at 1.5 ppm (UST) of the same compound?
**A.** 50%

**Q.** And the inhibition of growth at 3 ppm (UST)?
**A.** 100%

**Q.** What about the inhibition of growth at 6 ppm (UST) of the same compound?
**A.** 100%

**Q.** And the inhibition of growth at 12 ppm (UST; 12 ppm)?
**A.** 100%

**Q.** And the inhibition of growth at 25 ppm (UST)?
**A.** 100%

**Q.** And the inhibition of growth at 0.2 ppm (UST)?
**A.** 0%

**Q.** And the inhibition of growth at 0.4 ppm (UST)?
**A.** 0%

**Q.** And the inhibition of growth at 0.8 ppm (UST)?
**A.** 0%

**Q.** And the inhibition of growth at 1.5 ppm [4, 10]?
**A.** 0%

**Q.** What about the inhibition of growth at 6 ppm [4, 10] of the same compound?
**A.** 100%

**Q.** And the inhibition of growth at 25 ppm [4, 11]?
**A.** 100%

**Q.** What about the inhibition of growth at 25 ppm [4, 10] of the same compound?
**A.** 100%

**Q.** And the inhibition of growth at 0.2 ppm [4, 10]?
**A.** 0%

**Q.** What about the inhibition of growth at 0.4 ppm [4, 10] of the same compound?
**A.** 0%

**Q.** And the inhibition of growth at 0.8 ppm [4, 10]?
**A.** 0%

**Q.** And the inhibition of growth at 25 ppm (Fusarium roseum (FUS); [12])?
**A.** 100%

**Q.** And the inhibition of growth at 1.5 ppm (Fusarium roseum (FUS); Table IVb)?
**A.** 0%

**Q.** What about the inhibition of growth at 3 ppm (Fusarium roseum (FUS); Table IVb) of the same compound?
**A.** 0%

**Q.** What about the inhibition of growth at 6 ppm (Fusarium roseum (FUS); Table IVb) of the same compound?
**A.** 0%

**Q.** What about the inhibition of growth at 12 ppm (Fusarium roseum (FUS); Table IVb) of the same compound?
**A.** 100%

**Q.** And the inhibition of growth at 25 ppm (Fusarium roseum (FUS); [13])?
**A.** 100%

**Q.** What about the inhibition of growth at 0.2 ppm (Fusarium roseum (FUS); Table IVb) of the same compound?
**A.** 0%

**Q.** What about the inhibition of growth at 0.4 ppm (Fusarium roseum (FUS); Table IVb) of the same compound?
**A.** 0%

**Q.** What about the inhibition of growth at 0.8 ppm (Fusarium roseum (FUS); Table IVb) of the same compound?
**A.** 0%

**Q.** What about the MIC ([5]; IIIB, trypticase soy broth (complex media), Table IIIb, read-out: MIC (F) APUL) of the same compound?
**A.** 4 µg/mL (≈ 14.2 µM)
